Patent publication US20240269150A1, “WOUND TREATMENT COMPOSITION” (CS MEDICA A/S, priority 2021, published 2024)

Test: Comparison of compositions formulated with different crystalline CBDs
Assay type: in vivo
Details: compositions per Example 1 (formulation A or B) differing only in the crystalline CBD used
Source text: In some embodiments, CBD of crystal structure A (or capable of forming needle-like crystals) is at least 1.2, 1.5, 2, 3, 4, 5, 7.5, 10, 15 or 20 times more “potent” on a weight/weight basis than CBD of crystal structure B (or capable of forming cluster/bunch-like crystals). Often, the “A-type” CBD is at least 2.5, 5, 7.5, or 10 times more “potent” on a weight/weight basis than “B-type” CBD. The “potency” of “type A” CBD can e.g. be determined in measuring the time needed for wound and/or soar healing using essentially identical compositions with the exception of the type of CBD used. Alternatively, the potency can be determined in the quantity of CBD needed to provide the same effect, such as wound and/or sore healing time.
Two compositions are prepared according to Example 1, e.g. formulation A or B, the only difference being that the crystalline CBD used in the formulation is either of type A (needle-like crystals; FIG. 1) or type B (bunch/cluster-like; FIG. 2).
Type A crystalline CBD is sourced from Enecta, while type B CBD is sourced from Pharma Hemp.

C=C(C)[C@@H]1CCC(C)=C[C@H]1c1c(O)cc(CCCCC)cc1O [type A CBD, cannabidiol]
Activity / potency of type A CBD relative to type B CBD: significantly more active than type B CBD | Activity / potency of type A CBD relative to type B CBD (listed as CBD with a needle-like crystal structure): significantly more potent
